Experimental data published in patent publication US8946270B2, “Amido-pyridyl ether compounds and compositions and their use against parasites” (Merial Limited, priority 2011, dated 2015).
Read-outs that look alike come from different tables or passages of the source.

Key:
[1] = tested on: Rhipicephalus sanguineus (Brown Dog Tick); experiment: whole plant or invertebrate; conditions: for Contact SP Rhicicep PCT Mortality (%): 200 ppm; for mortality at 200 ppm: Rhipicephalus sanguineus, read-out: Contact SP Rhicicep PCT Mortality (%)
From the text: A solution of the test compound was used to coat the inner wall of glass vials and to treat two filter papers. Once dried, one filter paper was placed in the cap of the vial and the other in the bottom of the vial. Each treated vial was infested with 10 adult Rhipicephalus sanguineus (Brown Dog Tick). […]

Haematobia irritans = experiment: whole plant or invertebrate; conditions: 5 μg/cm^2; for mortality at 5 µg/cm2: Haematobia irritans, read-out: Contact SP Horn Fly PCT Mortality (%)
Experimental: A solution of the test compound was used to treat a filter paper contained within a Petri dish and the filter paper was allowed to evaporate to dryness. A small piece of absorbent cotton moistened with 10% sucrose and ten adult flies (Haematobia irritans or Stomoxys calcitrans) were added to each dish. Dishes were capped and held at room temperature. Assessments were performed at 4 and 24 hours after infestation in comparison with untreated controls.

Structure (SMILES)	Contact SP Rhicicep PCT Mortality (%) ([1]; timepoint 4 hrs)	Contact SP Rhicicep PCT Mortality (%) ([1]; timepoint 24 hrs)	mortality at 200 ppm ([1]; timepoint 4 hrs)	mortality at 200 ppm ([1]; timepoint 24 hrs)	further results
O=C(NCC1CCOCC1)c1ccc(COc2ccc(C(F)(F)F)cc2F)cn1 [Compound 257]	80%	90%			
CSCCNC(=O)c1ccc(COc2cc(F)cc(Br)c2)cn1 [Compound 115]					Contact SP Horn Fly PCT Mortality (%) (Haematobia irritans; timepoint 4 hrs): 0%; Contact SP Horn Fly PCT Mortality (%) (Haematobia irritans; timepoint 24 hrs): 60%
Cc1cccc(OCc2ccc(C(=O)NCC3CC3)nc2)c1 [Compound 61]					Contact SP Horn Fly PCT Mortality (%) (Haematobia irritans; timepoint 4 hrs): 90%; Contact SP Horn Fly PCT Mortality (%) (Haematobia irritans; timepoint 24 hrs): 90%
CC(C)CCNC(=O)c1ccc(COc2cc(F)cc(Br)c2)cn1 [Compound 129]					mortality at 5 µg/cm2 (Haematobia irritans; timepoint 4 hrs): 40%; mortality at 5 µg/cm2 (Haematobia irritans; timepoint 24 hrs): 40%
CC(C)CNC(=O)c1ccc(COCc2ccc(C(F)(F)F)cc2F)cn1 [Compound 232]			100%	100%	
O=C(NCC1CCOCC1)c1ccc(COc2ccc(C(F)(F)F)cc2Br)cn1 [Compound 256]	90%	100%			
O=C(NCc1ccncc1)c1ccc(COc2cc(F)cc(Br)c2)cn1 [Compound 114]	40%	60%			
O=C(NCC1CCOCC1)c1ccc(COCc2ccccc2Cl)cn1 [Compound 260]	90%	100%			
CC(C)CNC(=O)c1ccc(CCOc2cccc(C(F)(F)F)c2)cn1 [Compound 209]			90%	100%	
CC(C)CNC(=O)c1ccc(COc2ccc(F)c(F)c2)cn1 [Compound 155]	60%	100%			
CC(C)CCNC(=O)c1ccc(CCOc2cccc(OC(F)(F)F)c2)cn1 [Compound 240]			90%	90%	
CC(C)CNC(=O)c1ccc(COCc2ccc(C(F)(F)F)c(F)c2)cn1 [Compound 283]	100%	100%			
CC(C)CNC(=O)c1ccc(COCc2cc(F)cc(C(F)(F)F)c2)cn1 [Compound 229]			80%	80%	
CCCNC(=O)c1ccc(COc2cc(F)cc(Br)c2)cn1 [Compound 120]	60%	70%			
CC(C)CNC(=O)c1ccc(COCc2ccc(F)c(OC(F)(F)F)c2)cn1 [Compound 228]			90%	90%	
CC(C)CNC(=O)c1ccc(CCOc2ccc(Br)c(OC(F)(F)F)c2)cn1 [Compound 237]			90%	100%	
CCc1cccc(OCc2ccc(C(=O)NCC3CCOCC3)nc2)c1 [Compound 68]			50%	90%	
CC(C)CNC(=O)c1ccc(COCc2ccc(Cl)cc2)cn1 [Compound 234]			90%	90%	
CC(C)CNC(=O)c1ccc(COCc2cccc(F)c2F)cn1 [Compound 290]	80%	80%			
CC(C)CNC(=O)c1ccc(CCOc2ccc(F)c(OC(F)(F)F)c2)cn1 [Compound 222]	90%	100%			
CCC(C)CNC(=O)c1ccc(CCOc2cccc(OC(F)(F)F)c2)cn1 (stereo not shown) [Compound 242]			70%	90%	
CCc1cccc(OCc2ccc(C(=O)NCCSC)nc2)c1 [Compound 70]	80%	100%			
COc1cccc(OCc2ccc(C(=O)NCC(C)C)nc2)c1 [Compound 151]	0%	80%			
